Experiment [1] relates to IL-17 production from human Th17 cells. The experiment is described as follows: Assay of IL-17 production from human Th17 cells. Type of experiment: cell-based. As to conditions: 144 h; IL-17A in supernatant by ELISA (MSD) after 6 days, human CD4+ T cells differentiated into Th17; read-out: IC50. Here is the method:
The activity of compound of the invention can be also be determined by an IL-17 production from human Th17 cells assay. In general, this assay measures blockade of IL-17 production, the signature cytokine of T helper 17 (Th17) cells, by compounds. Purified human CD4+ T cells are stimulated with anti-CD3+anti-CD28 and incubated with a cytokine cocktail that induce their differentiation into Th17 in the absence or presence of various concentrations of compound. After 6 days, IL-17A concentration is measured in the cell culture supernatant with an ELISA kit (MSD).
Preparation of human CD4+ T cells. CD4+ T cells were purified from buffy coats from healthy donors (obtained from Massachusetts General Hospital) by negative selection the following procedure: Mixing 25 mL of blood with 1 mL of Rosette Sep CD4+ T cell enrichment cocktail (StemCell Technologies) followed by application of a layer of 14 mL Ficoll Paque Plus (Amersham GE Healthcare) and subsequent centrifugation at 1200 g for 20 min at room temperature. The Ficoll layer was then harvested and washed with phosphate saline buffer containing 2% (v/v) fetal bovine serum and cells were resuspended with RPMI medium containing 10% (v/v) fetal bovine serum and 10% (v/v) DMSO, frozen and kept in LN2 until used.
[…] Serial dilutions of compounds of the invention are prepared at 10× final concentration in X-Vivo15 medium containing 3% (v/v) DMSO.
On the second day of the assay, a 384-well tissue culture plate was coated with 10 μg/mL anti-hCD3 (eBioscience) at 50 μL/well. After 2 hr at 37° C., the supernatant is discarded and the coated plates are kept in a sterile tissue culture hood.
The cytokine plus anti-CD28 cocktail with CD4+ cells is prepared such that the cocktail is diluted 10-fold and cell density is 0.22×10^6/mL. The mixture is incubated 1 hr at 37° C.
90 μL (20,000 cells) dispensed per well in the anti-hCD3 coated plate prepared as noted above.
10 μL 10× compound is added per well (final DMSO=0.3%) from the compound plate that was previously prepared, followed by 6 days of incubation in a tissue culture vessel in a humidified chamber at 37° C. and 5% CO2.
Measurement is carried out in a Sector Imager 6000 by the same manufacturer. Signal units from the instrument are converted to pg/mL using a calibration curve with known amounts of IL-17A. IC50 values of test compounds (Table 2) are determined by the non-linear regression analysis of dose response curves.

Experiment [2] deals with RORC2 ligand binding domain (6-His-RORC2 LBD) (Homo sapiens (Human), UniProt P51449). The experiment is described as follows: Assay of co-activator recruitment by TR-FRET. Type of experiment: biochemical. To be noted: 6-His-RORC2 LBD / biotin-coactivator peptide SRC1-2 interaction, 3 hr room temperature. Here is the method:
The activity of compound of the invention can be determined by a co-activator recruitment by TR-FRET (time-resolved fluorescence resonance energy transfer) assay. […] When receptor and coactivator are bound to each other, upon shining light at 337 nm on the sample, the Europium emits fluorescence that excites APC due to close proximity (FRET) and this signal is measured at 665 nm. Due to the long lasting fluorescence emission of Europium, the non-specific, short-lived fluorescence is time-resolved (TR) from the fluorescence of interest. Inhibitors of the interaction of receptor and coactivator peptide are detected by a decrease in TR-FRET signal.
Specifically, in one embodiment the aforementioned assay was performed as outlined below. The assay was carried out in black polystyrene, 384-well plates in a total assay volume of 50.5 μL. The assay buffer contained 50 mM TRIS-HCL pH 7.5, 1 mM NaCl, 2 mM MgCl2, 0.5 mg/mL bovine serum albumin, and 5 mM dithiothreitol.

Data on ten compounds can be found in patent US10385036B2, “Sulfonamide-substituted indole modulators of RORC2 and methods of use thereof” (Pfizer Inc., priority 2015, dated 2019).

Sequence of RORC2 ligand binding domain (6-His-RORC2 LBD) (P51449 269-508): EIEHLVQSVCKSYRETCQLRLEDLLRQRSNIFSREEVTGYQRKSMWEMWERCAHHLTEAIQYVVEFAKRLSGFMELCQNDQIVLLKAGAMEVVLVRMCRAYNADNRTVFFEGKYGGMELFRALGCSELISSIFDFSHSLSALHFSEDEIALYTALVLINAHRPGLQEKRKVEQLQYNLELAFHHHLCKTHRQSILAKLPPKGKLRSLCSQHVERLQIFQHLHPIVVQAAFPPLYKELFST

For the compound `Cn1cc(C2CCN(C(=O)C3CCC3)CC2)c2cc(NS(=O)(=O)c3ccc(F)cc3)ccc21` [Example 11, N-(3-(1-(cyclobutanecarbonyl)piperidin-4-yl)-1-methyl-1H-indol-5-yl)-4-fluorobenzenesulfonamide], the results for the half-inhibitory concentration (IC50) in experiment [1] and in experiment [2] were 148 nM and 28.8 nM, respectively.
For `CC(C)CC(=O)N1CCC(c2cn(C)c3ccc(NS(=O)(=O)c4ccc(F)cc4)cc23)CC1` [Example 12, 4-Fluoro-N-(1-methyl-3-(1-(3-methylbutanoyl)piperidin-4-yl)-1H-indol-5-yl)benzenesulfonamide], in that order: 127 nM and 7.8 nM.
Taken in the same sequence, the figures for `Cn1cc(C2CCN(C(=O)CC3CC3)CC2)c2cc(NS(=O)(=O)c3ccc(F)cc3)ccc21` [Example 13, N-(3-(1-(2-Cyclopropylacetyl)piperidin-4-yl)-1-methyl-1H-indol-5-yl)-4-fluorobenzenesulfonamide] were 310 nM and 16.9 nM.
For `Cc1cccc(F)c1C(=O)N1CCC(c2cn(C)c3ccc(NS(=O)(=O)c4ccc(F)cc4)cc23)CC1` [Example 15, 4-fluoro-N-(3-(1-(2-fluoro-6-methylbenzoyl)piperidin-4-yl)-1-methyl-1H-indol-5-yl)benzenesulfonamide], in that order: 189 nM and 6.8 nM.
As for `CC(C)[C@H](C)C(=O)N1CCC(c2cn(C)c3ccc(NS(=O)(=O)c4ccc(F)cc4)cc23)CC1` [Example 16, (S)-N-(3-(1-(2,3-dimethylbutanoyl)pipendin-4-yl)-1-methyl-1H-indol-5-yl)-4-fluorobenzenesulfonamide], the values for the 50% inhibitory concentration (IC50) in experiment [1] and in experiment [2] were 53.8 nM and 3.1 nM, respectively.
Taken in the same sequence, the figures for `Cn1cc(C2CCN(C(=O)C3CCCC3)CC2)c2cc(NS(=O)(=O)c3ccccc3F)ccc21` [Example 17, N-(3-(1-(cyclopentanecarbonyl)piperidin-4-yl)-1-methyl-1H-indol-5-yl)-2-fluorobenzenesulfonamide] were 114 nM and 5.9 nM.
Taken in the same sequence, the figures for `COc1cc(S(=O)(=O)Nc2ccc3c(c2)c(C2CCN(C(=O)C(C)C)CC2)cn3C)ccc1F` [Example 22, 4-fluoro-N-(3-(1-isobutyrylpiperidin-4-yl)-1-methyl-1H-indol-5-yl)-3-methoxybenzenesulfonamide] were 267 nM and 10.6 nM.
For `Cc1nn(C)c(C)c1S(=O)(=O)Nc1ccc2c(c1)c(C1CCN(C(=O)[C@H](C)C(C)(C)C)CC1)cn2C` [Example 26, (R)-1,3,5-trimethyl-N-(1-methyl-3-(1-(2,3,3-trimethylbutanoyl)piperidin-4-yl)-1H-indol-5-yl)-1H-pyrazole-4-sulfonamide], the 50% inhibitory concentration (IC50) was determined as 5.1 nM in experiment [1] and 1.3 nM in experiment [2].
Regarding `Cc1noc(C)c1S(=O)(=O)Nc1ccc2c(c1)c(C1CCN(C(=O)[C@H](C)C(C)(C)C)CC1)cn2C` [Example 30, (R)-3,5-dimethyl-N-(1-methyl-3-(1-(2,3,3-trimethylbutanoyl)piperidin-4-yl)-1H-indol-5-yl)isoxazole-4-sulfonamide], the IC50 in experiment [1] is 19.8 nM; in experiment [2], 10 nM.
In the case of `C[C@@H](C(=O)N1CCC(c2cn(C)c3ccc(NS(=O)(=O)c4ccc(F)cc4)cc23)CC1)C12CC(C1)C2` [Example 31, (R)-N-(3-(1-(2-(bicyclo[1.1.1]pentan-1-yl)propanoyl)piperidin-4-yl)-1-methyl-1H-indol-5-yl)-4-fluorobenzenesulfonamide], the concentration for half-maximal inhibition (IC50) in experiment [1] was 26 nM; in experiment [2], 2.4 nM.
